From patent US5459257A, “Sulfated oligoglycoside acylate and antiviral agent containing the same as active ingredient” (priority 1993, dated 1995)
Like-named read-outs stand apart in the source and are kept apart here.

How the values were obtained:
[1] = in vivo; cited from earlier work
HIV [2] = assay: anti-HIV activity of serum after intravenous administration to mice; format: in vivo; conditions: for reciprocal number of concentration of dextran sulfate at 50% cell viability: mouse serum, 80 mg/kg
Protocol: The effects of Compound 6 and dextran sulfate in vivo experiment were studied by duration of the activity using mouse.
Compound 6 were dissolved with saline at the concentration of 32 mg/10 ml. Dextran sulfate (Control compound: M.W=8000: Sigma) were dissolved with it at the concentration of 80 mg/10 ml.
(§1) Mouse (Crj:CD-1(ICR)) (supplier: Charles River Japan, Inc.), six weeks old were used for this study.
Four groups (for 1, 4, 6 and 12 hours) of mice (one group: three mice) were used for the in vivo experiments of the Compound 6.
The twelve mice were given an intravenous injection of the compound (in the tail vein; Dose 32 mg/kg).
Three groups (for 20, 40 and 60 minutes) of mice (one group: two mice) were used for dextran sulfate such a method as described in Compound 6 (Dose 80 mg/kg). At decided times after injection, the blood was collected and serum was separated by centrifugation at low speed.
The serum samples were stored at -80° C. until assayed. Each serum sample was diluted with culture medium to evaluate the effective concentration (the maximum concentration was set up to 10%). The method of this anti-HIV activity evaluation was the same one as described in EXAMPLE 49.
(*)Various concentration of the serum solutions (diluted with the medium
and the maximum concentration is 10%) were used for evaluation of the
shown. That is why the higher the reciprocal number, the higher the […]

rabbit blood [3] = tested on: rabbit blood
Protocol: (§3) Sodium heparin (Kodama) used as positive control was diluted with saline at the concentration of 120 U/ml.
(§4) Japan White rabbits (supplier: Kitayama Labes), 4 months old, were used for this study.
(§5) Cardiopuncture was performed in a rabbit, and at when blood was started to be flowed into the syringe, the timer was made to start. The whole blood collected was carefully flowed into double glass tubes incubated. After putting the samples calmly for 3 minutes, the first tube was tilted gently every 30 seconds and the current of blood was observed. When blood in the first tube was clotted, the same operation was performed in the second tube. When the blood was clotted in the second tube, the timer was stopped, and this end point was recorded as whole blood clotting time.

rabbit blood [4] = assay: effects on blood clotting, whole blood clotting time; conditions: for clotting time: rabbit whole blood
Protocol: as §3, §4, §5

HIV [5] = assay: anti-HIV activity of serum after oral administration to mice; format: in vivo; conditions: for reciprocal number of concentration at 50% cell viability: mouse serum
Protocol: The effects of orally administration of Compound 1 in vivo experiment were studied by duration of the activity using mouse.
Compound 1 was dissolved with distilled water at the concentrations of 500 mg/10 ml and 1000 mg/10 ml.
as §1
Three groups (for 1, 2 and 3 hours) of mice (one group: three mice) were used for the in vivo experiments. Nine mice were given an orally administered of Compound 1 at a dose of 500 mg/kg or 1.0 g/kg.
At decided times after administration, the blood was collected and the serum was collected by centrifugation at low speed.
The serum samples were stored at -80° C. until assayed.
Each serum sample was diluted to evaluate the effective concentration with culture medium. The evaluation method was the same as described the section of Anti-HIV activity.

HIV [6] = assay: anti-HIV activity, inhibition of HIV-induced cytopathicity in MT-4 cells (MTT method); format: cell-based
Protocol: (§2) A test compound having various concentrations were placed in a 96-well microtiter plate along with HIV-infected MT-4 cells (2.5×10^4 /well, MOI (multiplicity of infection): 0.01) immediately after infection thereof. In order to ascertain the cytotoxicty of the test compound with respect to MT-4 cells, mock-infected (non-infected) cells were cultured in an identical manner along with the test compound of various concentrations. After incubating for 5 days at 37° C. in a CO2 atmosphere, the number of living cells were determined by using MTT method. The anti-HIV activity was evaluated with the method written by R. Pauwels, et al. (R. Pauwels, et al., J. Virol Methods, 20, 309 to 321 (1988)).
The anti-HIV activity is shown in terms of EC50 (50% effective concentration) that is the concentration of a compound which inhibits 50% of HIV-induced cytopathicity in MT-4 cells, and the cytotoxity is shown in terms of CC50 (cytotoxic concentration) that is the concentration of a compound which reduces 50% of viability of mock-infected MT-4 cells. Selectivity Index (S.I.) is expressed by the ratio of CC50 to EC50 (CC50 /EC50).

MT-4 cells = assay: cytotoxicity in mock-infected MT-4 cells (MTT method); format: cell-based; conditions: mock-infected MT-4 cells, 5 days, 37° C.; 7200 min
Protocol: as §2, with “method.” for “method. The anti-HIV activity was evaluated with the method written by R. Pauwels, et al. (R. Pauwels, et al., J. Virol Methods, 20, 309 to 321 (1988)).”
Selectivity Index (S.I.) is expressed by the ratio of CC50 to EC50 (CC50 /EC50).

Substance | absorption after oral administration [1] | reciprocal number of concentration of dextran sulfate at 50% cell viability (HIV [2]; 20 min after i.v. injection) | reciprocal number of concentration of dextran sulfate at 50% cell viability (HIV [2]; 40 min after i.v. injection) | reciprocal number of concentration of dextran sulfate at 50% cell viability (HIV [2]; 60 min after i.v. injection) | detection/duration of activity in serum (HIV [2]; mouse, i.v., Compound 6 32 mg/kg up to 12 hours, dextran sulfate 80 mg/kg up to 60 min) | comparing strength of effects on blood clotting (rabbit blood [3]) | comparing strength of effects on blood clotting (rabbit blood [4]; at the concentration of more than 0.1%) | clotting time (rabbit blood [4]; 0.01%) | clotting time (rabbit blood [4]; 0.1%) | clotting time (rabbit blood [4]; 1.0%) | reciprocal number of concentration at 50% cell viability (HIV [5]; 1 hour after oral administration, 500 mg/kg) | reciprocal number of concentration at 50% cell viability (HIV [5]; 1 hour after oral administration, 1.0 g/kg) | reciprocal number of concentration at 50% cell viability (HIV [5]; 2 hours after oral administration, 500 mg/kg) | reciprocal number of concentration at 50% cell viability (HIV [5]; 2 hours after oral administration, 1.0 g/kg) | reciprocal number of concentration at 50% cell viability (HIV [5]; 3 hours after oral administration, 500 mg/kg) | reciprocal number of concentration at 50% cell viability (HIV [5]; 3 hours after oral administration, 1.0 g/kg) | detection of activity in serum after oral administration (HIV [5]; mouse, oral, 500 mg/kg or 1.0 g/kg) | EC50 (HIV [6]; HIV-infected MT-4 cells, MOI 0.01, 5 days, 37° C.) | S.I. (CC50/EC50) (HIV [6]; MT-4 cells, ratio of CC50 to EC50, 7200 min) | CC50 (MT-4 cells)
dextran sulfate | poorly absorbed | < 10 | < 10 | < 10 | could not be detected | dextran sulfate>1>6 | – | – | – | – | – | – | – | – | – | – | – | – | – | –
Sulfated n-dodecyl O-benzoyl-β-D-laminaripentaoside [Compound 1] | – | – | – | – | – | – | dextran sulfate>1>6 | 8.0 ± 0.5 min | 8.3 ± 0.7 min | 27.3 ± 3.0 min | 15.9 | 55.6 | 19.2 | 83.8 | 26.7 | 54.1 | detected at a high concentration | 3.2 µg/mL | 254 | 814 µg/mL
